Assay results taken from ChEMBL document CHEMBL3112395, “Synthesis and structure-activity relationship studies of N-terminal analogues of the antimicrobial peptide tridecaptin A(1)” (J Med Chem, 2014).
In brackets after ≈: the same amount, converted by molar mass.

What was measured:
[1] = Cytotoxicity against HEK293 cells assessed as growth inhibition after 48 hrs by MTT assay; assay type: cell-based; conditions: human, read-out: MIC
[2] = Hemolytic activity in rabbit erythrocytes at 83 ug/mL after 30 mins relative to control; assay type: ADME, cell-based, Oryctolagus cuniculus, Erythrocyte; conditions: read-out: Activity
Enterococcus faecium = assay: Antibacterial activity against Enterococcus faecium ATCC 19434 assessed as growth inhibition by broth dilution method; assay type: functional
Listeria monocytogenes = assay: Antibacterial activity against Listeria monocytogenes ATCC […] assessed as growth inhibition by broth dilution method; assay type: functional
Staphylococcus aureus = assay: Antibacterial activity against Staphylococcus aureus ATCC 29213 assessed as growth inhibition by broth dilution method; assay type: functional
Enterococcus faecalis = assay: Antibacterial activity against Enterococcus faecalis ATCC 29212 assessed as growth inhibition by broth dilution method; assay type: functional
Acinetobacter baumannii = assay: Antibacterial activity against Acinetobacter baumannii ATCC 19606 assessed as growth inhibition by broth dilution method; assay type: functional
Klebsiella pneumoniae = assay: Antibacterial activity against Klebsiella pneumoniae ATCC 13883 assessed as growth inhibition by broth dilution method; assay type: functional
Campylobacter jejuni = assay: Antibacterial activity against Campylobacter jejuni NCTC 11168 assessed as growth inhibition by broth dilution method; assay type: functional
Salmonella enterica = assay: Antibacterial activity against Salmonella enterica ATCC 13311 assessed as growth inhibition by broth dilution method; assay type: functional
Pseudomonas aeruginosa = assay: Antibacterial activity against Pseudomonas aeruginosa ATCC 27853 assessed as growth inhibition by broth dilution method; assay type: functional
Escherichia coli = assay: Antibacterial activity against Escherichia coli ATCC 25922 assessed as growth inhibition by broth dilution method; assay type: functional

Row | Structure (SMILES) | MCC at 48 h [1] [µg/mL] | hemolysis at 0.5 h, 83 ug/mL [2] [%] | MIC (Enterococcus faecium) [µg/mL] | MIC (Listeria monocytogenes) [µg/mL] | MIC (Staphylococcus aureus) [µg/mL] | MIC (Enterococcus faecalis) [µg/mL] | MIC (Acinetobacter baumannii) [µg/mL] | MIC (Klebsiella pneumoniae) [µg/mL] | MIC (Campylobacter jejuni) [µg/mL] | MIC (Salmonella enterica) [µg/mL] | MIC (Pseudomonas aeruginosa) [µg/mL] | MIC (Escherichia coli) [µg/mL]
1 | CC[C@H](C)CC[C@@H](O)CC(=O)N[C@@H](C(=O)N[C@H](CCN)C(=O)NCC(=O)N[C@H](CO)C(=O)N[C@H](Cc1c[nH]c2ccccc12)C(=O)N[C@@H](CO)C(=O)N[C@@H](CCN)C(=O)N[C@H](CCN)C(=O)N[C@@H](Cc1ccccc1)C(=O)N[C@@H](CCC(=O)O)C(=O)N[C@H](C(=O)N[C@@H](C(=O)N[C@@H](C)C(=O)O)[C@@H](C)CC)C(C)C)C(C)C | 200 | 3.2 | > 100 | 50 (≈ 32.2 µM) | > 100 | > 100 | 12.5 (≈ 8.06 µM) | 3.13 (≈ 2.02 µM) | 1.56 (≈ 1.01 µM) | 6.25 (≈ 4.03 µM) | 50 (≈ 32.2 µM) | 3.13 (≈ 2.02 µM)
2 | CC[C@H](C)[C@@H](NC(=O)[C@@H](NC(=O)[C@H](CCC(=O)O)NC(=O)[C@H](Cc1ccccc1)NC(=O)[C@@H](CCN)NC(=O)[C@H](CCN)NC(=O)[C@H](CO)NC(=O)[C@@H](Cc1c[nH]c2ccccc12)NC(=O)[C@@H](CO)NC(=O)CNC(=O)[C@@H](CCN)NC(=O)[C@H](N)C(C)C)C(C)C)C(=O)N[C@@H](C)C(=O)O |  | 0.5 | > 100 | > 100 | > 100 | > 100 | > 100 | 50 (≈ 35.9 µM) | > 100 | 100 (≈ 71.7 µM) | 100 (≈ 71.7 µM) | 100 (≈ 71.7 µM)
3 | CCCCCCCCCCCC(=O)N[C@@H](C(=O)N[C@H](CCN)C(=O)NCC(=O)N[C@H](CO)C(=O)N[C@H](Cc1c[nH]c2ccccc12)C(=O)N[C@@H](CO)C(=O)N[C@@H](CCN)C(=O)N[C@H](CCN)C(=O)N[C@@H](Cc1ccccc1)C(=O)N[C@@H](CCC(=O)O)C(=O)N[C@H](C(=O)N[C@@H](C(=O)N[C@@H](C)C(=O)O)[C@@H](C)CC)C(C)C)C(C)C |  | 82.2 | 100 (≈ 63.4 µM) | 50 (≈ 31.7 µM) | > 100 | > 100 | 50 (≈ 31.7 µM) | 12.5 (≈ 7.93 µM) | 0.4 (≈ 0.254 µM) | 50 (≈ 31.7 µM) | > 100 | 12.5 (≈ 7.93 µM)
4 | CCCCCCCCC(=O)N[C@@H](C(=O)N[C@H](CCN)C(=O)NCC(=O)N[C@H](CO)C(=O)N[C@H](Cc1c[nH]c2ccccc12)C(=O)N[C@@H](CO)C(=O)N[C@@H](CCN)C(=O)N[C@H](CCN)C(=O)N[C@@H](Cc1ccccc1)C(=O)N[C@@H](CCC(=O)O)C(=O)N[C@H](C(=O)N[C@@H](C(=O)N[C@@H](C)C(=O)O)[C@@H](C)CC)C(C)C)C(C)C |  |  | 100 (≈ 65.2 µM) | 25 (≈ 16.3 µM) | 100 (≈ 65.2 µM) | 100 (≈ 65.2 µM) | 50 (≈ 32.6 µM) | 12.5 (≈ 8.14 µM) | 0.78 (≈ 0.508 µM) | 6.25 (≈ 4.07 µM) | 100 (≈ 65.2 µM) | 12.5 (≈ 8.14 µM)
5 | CCCC(=O)N[C@@H](C(=O)N[C@H](CCN)C(=O)NCC(=O)N[C@H](CO)C(=O)N[C@H](Cc1c[nH]c2ccccc12)C(=O)N[C@@H](CO)C(=O)N[C@@H](CCN)C(=O)N[C@H](CCN)C(=O)N[C@@H](Cc1ccccc1)C(=O)N[C@@H](CCC(=O)O)C(=O)N[C@H](C(=O)N[C@@H](C(=O)N[C@@H](C)C(=O)O)[C@@H](C)CC)C(C)C)C(C)C |  | 0.8 | > 100 | > 100 | > 100 | > 100 | 100 (≈ 68.3 µM) | 25 (≈ 17.1 µM) | 12.5 (≈ 8.53 µM) | 25 (≈ 17.1 µM) | > 100 | 12.5 (≈ 8.53 µM)
6 | CCCCCC(=O)N[C@@H](C(=O)N[C@H](CCN)C(=O)NCC(=O)N[C@H](CO)C(=O)N[C@H](Cc1c[nH]c2ccccc12)C(=O)N[C@@H](CO)C(=O)N[C@@H](CCN)C(=O)N[C@H](CCN)C(=O)N[C@@H](Cc1ccccc1)C(=O)N[C@@H](CCC(=O)O)C(=O)N[C@H](C(=O)N[C@@H](C(=O)N[C@@H](C)C(=O)O)[C@@H](C)CC)C(C)C)C(C)C |  |  | > 100 | 100 (≈ 67 µM) | > 100 | > 100 | 25 (≈ 16.7 µM) | 3.13 (≈ 2.1 µM) | 3.13 (≈ 2.1 µM) | 6.25 (≈ 4.19 µM) | 50 (≈ 33.5 µM) | 3.13 (≈ 2.1 µM)
7 | CC[C@H](C)[C@@H](NC(=O)[C@@H](NC(=O)[C@H](CCC(=O)O)NC(=O)[C@H](Cc1ccccc1)NC(=O)[C@@H](CCN)NC(=O)[C@H](CCN)NC(=O)[C@H](CO)NC(=O)[C@@H](Cc1c[nH]c2ccccc12)NC(=O)[C@@H](CO)NC(=O)CNC(=O)[C@@H](CCN)NC(=O)[C@H](NC(=O)COCCOCCOC)C(C)C)C(C)C)C(=O)N[C@@H](C)C(=O)O |  |  | > 100 | > 100 | > 100 | > 100 | > 100 | > 100 | > 100 | > 100 | > 100 | > 100
8 | CC[C@@H](C)CC[C@H](O)CC(=O)N[C@@H](C(=O)N[C@H](CCN)C(=O)NCC(=O)N[C@H](CO)C(=O)N[C@H](Cc1c[nH]c2ccccc12)C(=O)N[C@@H](CO)C(=O)N[C@@H](CCN)C(=O)N[C@H](CCN)C(=O)N[C@@H](Cc1ccccc1)C(=O)N[C@@H](CCC(=O)O)C(=O)N[C@H](C(=O)N[C@@H](C(=O)N[C@@H](C)C(=O)O)[C@@H](C)CC)C(C)C)C(C)C |  |  | > 100 | > 100 | > 100 | > 100 | 50 (≈ 32.2 µM) | 12.5 (≈ 8.06 µM) | 3.13 (≈ 2.02 µM) | 25 (≈ 16.1 µM) | 100 (≈ 64.5 µM) | 12.5 (≈ 8.06 µM)
9 | CC[C@H](C)[C@@H](NC(=O)[C@@H](NC(=O)[C@H](CCC(=O)O)NC(=O)[C@H](Cc1ccccc1)NC(=O)[C@@H](CCN)NC(=O)[C@H](CCN)NC(=O)[C@H](CO)NC(=O)[C@@H](Cc1c[nH]c2ccccc12)NC(=O)[C@@H](CO)NC(=O)CNC(=O)[C@@H](CCN)NC(=O)[C@H](NC(C)=O)C(C)C)C(C)C)C(=O)N[C@@H](C)C(=O)O |  |  | > 100 | > 100 | > 100 | > 100 | > 100 | 50 (≈ 34.8 µM) | 100 (≈ 69.6 µM) | 100 (≈ 69.6 µM) | > 100 | 50 (≈ 34.8 µM)
10 | CC[C@H](C)[C@@H](NC(=O)[C@@H](NC(=O)[C@H](CCC(=O)O)NC(=O)[C@H](Cc1ccccc1)NC(=O)[C@@H](CCN)NC(=O)[C@H](CCN)NC(=O)[C@H](CO)NC(=O)[C@@H](Cc1c[nH]c2ccccc12)NC(=O)[C@@H](CO)NC(=O)CNC(=O)[C@@H](CCN)NC(=O)[C@H](NC(=O)CCc1c2ccccc2cc2ccccc12)C(C)C)C(C)C)C(=O)N[C@@H](C)C(=O)O |  |  | > 100 | 50 (≈ 30.7 µM) | > 100 | > 100 | 25 (≈ 15.4 µM) | 12.5 (≈ 7.68 µM) | 1.56 (≈ 0.959 µM) | 12.5 (≈ 7.68 µM) | > 100 | 6.25 (≈ 3.84 µM)
11 | CCCCCCCCCC(=O)N[C@@H](C(=O)N[C@H](CCN)C(=O)NCC(=O)N[C@H](CO)C(=O)N[C@H](Cc1c[nH]c2ccccc12)C(=O)N[C@@H](CO)C(=O)N[C@@H](CCN)C(=O)N[C@H](CCN)C(=O)N[C@@H](Cc1ccccc1)C(=O)N[C@@H](CCC(=O)O)C(=O)N[C@H](C(=O)N[C@@H](C(=O)N[C@@H](C)C(=O)O)[C@@H](C)CC)C(C)C)C(C)C |  |  | 100 (≈ 64.6 µM) | 25 (≈ 16.1 µM) | > 100 | > 100 | 12.5 (≈ 8.07 µM) | 6.25 (≈ 4.04 µM) | 0.4 (≈ 0.258 µM) | 12.5 (≈ 8.07 µM) | > 100 | 6.25 (≈ 4.04 µM)
12 | CC[C@H](C)[C@@H](NC(=O)[C@@H](NC(=O)[C@H](CCC(=O)O)NC(=O)[C@H](Cc1ccccc1)NC(=O)[C@@H](CCN)NC(=O)[C@H](CCN)NC(=O)[C@H](CO)NC(=O)[C@@H](Cc1c[nH]c2ccccc12)NC(=O)[C@@H](CO)NC(=O)CNC(=O)[C@@H](CCN)NC(=O)[C@H](NC(=O)OCC1c2ccccc2-c2ccccc21)C(C)C)C(C)C)C(=O)N[C@@H](C)C(=O)O |  | 100 | 25 (≈ 15.5 µM) | 12.5 (≈ 7.73 µM) | 100 (≈ 61.8 µM) | 50 (≈ 30.9 µM) | 12.5 (≈ 7.73 µM) | 6.25 (≈ 3.87 µM) | 0.78 (≈ 0.482 µM) | 6.25 (≈ 3.87 µM) | > 100 | 6.25 (≈ 3.87 µM)
